Test results reported in patent publication US11957684B2, “Treatment of heavy menstrual bleeding associated with uterine fibroids” (Sumitomo Pharma Switzerland GmbH, priority 2016, dated 2024).
Read-outs that look alike come from different tables or passages of the source.

How the values were obtained:
[1] = system: endometriosis-associated pain; format: in vivo, human; conditions: 3.75 mg sc/4 wk
Experimental: Subjects assessed and recorded their own quality of life (QOL) using the EHP-30 once a month during the study visit. As used in the examples, the VAS score was evaluated using a 100 mm scale. For pain intensity, the scale was anchored by “no pain” (score of 0) and “pain as bad as you can imagine” (score of 100). […] The above items were evaluated using a patient diary that was distributed by the sponsor. Subjects filled out the patient diary every day during the treatment period or until early termination. If taking prohibited analgesics, subjects recorded this fact in the patient diary along with the accompanying pain symptoms before use of analgesics. As used in the examples, pain during menstruation and pelvic pain unrelated to menstruation were evaluated using scores on the M-B&B and B&B. The M-B&B scores were recorded by subjects on the patient diary supplied by the sponsor. Subjects filled out the patient diary every day during the treatment period or until early termination. If taking prohibited analgesics, subjects recorded this fact in the patient diary along with the accompanying pain symptoms before use of analgesics. The investigator or subinvestigator assessed each patient's pain through interviews and filled out a B&B once a month. The items that were assessed are shown below. The M-B&B score included: dysmenorrhea (severe, moderate, mild, no pain, or no menstruation); pelvic pain (severe, moderate, mild, or no pain); deep dyspareunia (severe, moderate, mild, no pain, or no intercourse). The B&B score included: dysmenorrhea (severe, moderate, mild, none, or not applicable); dyspareunia (severe, moderate, mild, none, or not applicable); pelvic pain (severe, moderate, mild, or none); pelvic tenderness (severe, moderate, mild, or none); and induration (severe, moderate, mild, or none). As used in the examples, the EHP-30 score was obtained by subjects assessing and recording their own QOL using the EHP-30 questionnaire.

women with endometriosis = test: Example 7: bone mineral density and serum hormones; format: in vivo, human
Source text: Subjects were diagnosed with endometriosis within the 5 years before screening and had dysmenorrhea and pelvic pain, of which either 1 or both was at least “moderate” as determined by the investigator using the Biberoglu & Behrman (B&B) scale. […] Secondary endpoints included VAS score for pelvic pain, dysmenorrhea, and dyspareunia during the treatment period.

[2] = end of treatment, listed as leuprorelin

With `CCNC(=O)[C@@H]1CCCN1C(=O)[C@H](CCCNC(=N)N)NC(=O)[C@H](CC(C)C)NC(=O)[C@@H](CC(C)C)NC(=O)[C@H](Cc1ccc(O)cc1)NC(=O)[C@H](CO)NC(=O)[C@H](Cc1c[nH]c2ccccc12)NC(=O)[C@H](Cc1c[nH]cn1)NC(=O)[C@@H]1CCC(=O)N1` [leuprolide acetate, reference compound] as the compound, how does the “change from baseline in mean VAS, dysmenorrhea” value ([1]; Day 1-28) read?
The value was −9.985±15.7027 mm.

What about the “change from baseline in mean VAS, dyspareunia” value ([1]; Day 1-28) of the same compound?
Its value is −3.126±17.0520 mm.

And the “change from baseline in mean VAS, pelvic pain” value ([1]; Day 1-28)?
The value was −4.282±7.3628 mm.

What about the “mean VAS score, dysmenorrhea” value ([1]; Day 1-28) of the same compound?
Its value is 17.133±19.4179 mm.

And the “mean VAS score, dyspareunia” value ([1]; Day 1-28)?
Its value is 7.288±16.2960 mm.

What about the “mean VAS score, pelvic pain” value ([1]; Day 1-28) of the same compound?
The value was 10.899±14.8866 mm.

And the “change from baseline in mean VAS, dysmenorrhea” value ([1]; Day 57-84)?
The value was −27.558±19.9878 mm.

And the “change from baseline in mean VAS, dyspareunia” value ([1]; Day 57-84)?
Its value is −6.752±10.5824 mm.

And the “change from baseline in mean VAS, pelvic pain” value ([1]; Day 57-84)?
Its value is −10.364±10.4428 mm.

What about the “mean VAS score, dysmenorrhea” value ([1]; Day 57-84) of the same compound?
Its value is 0.000±0.0000 mm.

And the “mean VAS score, dyspareunia” value ([1]; Day 57-84)?
The value was 5.478±10.7612 mm.

And the “mean VAS score, pelvic pain” value ([1]; Day 57-84)?
The value was 5.013±12.0454 mm.

What about the “change from baseline in mean VAS, dysmenorrhea” value ([1]; Day 141-168) of the same compound?
Its value is −28.373±20.7287 mm.

And the “change from baseline in mean VAS, dyspareunia” value ([1]; Day 141-168)?
The value was −4.953±16.9523 mm.

What about the “change from baseline in mean VAS, pelvic pain” value ([1]; Day 141-168) of the same compound?
Its value is −13.804±12.8288 mm.

And the “mean VAS score, dysmenorrhea” value ([1]; Day 141-168)?
The value was 0.000±0.0000 mm.

What about the “mean VAS score, dyspareunia” value ([1]; Day 141-168) of the same compound?
The value was 5.565±12.5556 mm.

And the “mean VAS score, pelvic pain” value ([1]; Day 141-168)?
The value was 2.167±5.1999 mm.

What about the “change from baseline in EHP-30, Self-image” value ([1]; Week 24) of the same compound?
The value was −9.42±15.553.

And the “change from baseline in EHP-30, control & powerlessness” value ([1]; Week 24)?
Its value is −24.80±23.839.

And the “change from baseline in EHP-30, emotional well-being” value ([1]; Week 24)?
The value was −12.37±18.332.

What about the “change from baseline in EHP-30, pain” value ([1]; Week 24) of the same compound?
Its value is −26.38±20.341.

And the “change from baseline in EHP-30, social support” value ([1]; Week 24)?
Its value is −10.46±17.923.

And the “change from baseline in mean B&B score, dysmenorrhea” value ([1]; Week 24)?
The value was −2.1±0.49.

What about the “change from baseline in mean B&B score, dyspareunia” value ([1]; Week 24) of the same compound?
Its value is −0.5±0.88.

What about the “change from baseline in mean B&B score, induration” value ([1]; Week 24) of the same compound?
Its value is −0.8±0.82.

And the “change from baseline in mean B&B score, pelvic pain” value ([1]; Week 24)?
The value was −1.2±0.72.

And the “change from baseline in mean B&B score, pelvic tenderness” value ([1]; Week 24)?
The value was −1.1±0.78.

What about the “subjects without pain in B&B score, dysmenorrhea” value ([1]; Week 24) of the same compound?
Its value is 100%.

And the “subjects without pain in B&B score, dyspareunia” value ([1]; Week 24)?
The value was 70.6%.

And the “subjects without pain in B&B score, induration” value ([1]; Week 24)?
The value was 75.4%.

What about the “subjects without pain in B&B score, pelvic pain” value ([1]; Week 24) of the same compound?
Its value is 68.9%.

And the “subjects without pain in B&B score, pelvic tenderness” value ([1]; Week 24)?
Its value is 70.5%.

And the “change from baseline in maximum M-B&B score, dysmenorrhea” value ([1]; end of treatment)?
Its value is −1.9±0.69.

And the “change from baseline in maximum M-B&B score, dyspareunia” value ([1]; end of treatment)?
Its value is −0.4±0.78.

What about the “change from baseline in maximum M-B&B score, pelvic pain” value ([1]; end of treatment) of the same compound?
Its value is −1.3±0.82.

And the “change from baseline in maximum VAS, dysmenorrhea” value ([1]; end of treatment)?
The value was −51.8±27.01 mm.

What about the “change from baseline in maximum VAS, dyspareunia” value ([1]; end of treatment) of the same compound?
The value was −10.3±19.76 mm.

What about the “change from baseline in maximum VAS, pelvic pain” value ([1]; end of treatment) of the same compound?
Its value is −46.8±26.29 mm.

And the “change from baseline in mean M-B&B score, deep dyspareunia” value ([1]; end of treatment)?
The value was −0.208±0.5604.

What about the “change from baseline in mean M-B&B score, dysmenorrhea” value ([1]; end of treatment) of the same compound?
Its value is −1.160±0.4802.

What about the “change from baseline in mean M-B&B score, pelvic pain” value ([1]; end of treatment) of the same compound?
The value was −0.483±0.4860.

What about the “change from baseline in mean VAS, dysmenorrhea” value ([1]; end of treatment) of the same compound?
The value was −26.944±19.9212 mm.

And the “change from baseline in mean VAS, dyspareunia” value ([1]; end of treatment)?
The value was −4.593±15.0878 mm.

What about the “change from baseline in mean VAS, pelvic pain” value ([1]; end of treatment) of the same compound?
The value was −12.552±12.5609 mm.

What about the “change from baseline in mean score of amount of bleeding (0 to 5)” value ([1]; end of treatment) of the same compound?
Its value is −2.320±0.7281.

What about the “change in proportion of days without pain (M-B&B), deep dyspareunia” value ([1]; end of treatment) of the same compound?
Its value is 21.76±43.266%.

What about the “change in proportion of days without pain (M-B&B), dysmenorrhea” value ([1]; end of treatment) of the same compound?
The value was 80.29±23.327%.

And the “change in proportion of days without pain (M-B&B), pelvic pain” value ([1]; end of treatment)?
Its value is 33.42±34.007%.

And the “change in proportion of days without pain (VAS), dysmenorrhea” value ([1]; end of treatment)?
Its value is 82.09±24.051%.

And the “change in proportion of days without pain (VAS), dyspareunia” value ([1]; end of treatment)?
Its value is 21.76±43.266%.

And the “change in proportion of days without pain (VAS), pelvic pain” value ([1]; end of treatment)?
The value was 40.70±33.342%.

And the “mean VAS score, dysmenorrhea” value ([1]; end of treatment)?
The value was 0.174±1.1623 mm.

And the “mean VAS score, dyspareunia” value ([1]; end of treatment)?
Its value is 4.913±10.6249 mm.

And the “mean VAS score, pelvic pain” value ([1]; end of treatment)?
Its value is 2.629±5.5783 mm.

And the “subjects who achieved amenorrhea” value ([1]; end of treatment)?
Its value is 97.5%.

What about the “subjects without pain in M-B&B score, dysmenorrhea” value ([1]; end of treatment) of the same compound?
The value was 97.5%.

And the “subjects without pain in M-B&B score, dyspareunia” value ([1]; end of treatment)?
The value was 56.5%.

And the “subjects without pain in M-B&B score, pelvic pain” value ([1]; end of treatment)?
Its value is 63.8%.

And the “subjects without pain in VAS score, dysmenorrhea” value ([1]; end of treatment)?
Its value is 97.5%.

What about the “subjects without pain in VAS score, dyspareunia” value ([1]; end of treatment) of the same compound?
The value was 56.5%.

And the “subjects without pain in VAS score, pelvic pain” value ([1]; end of treatment)?
Its value is 56.8%.

What about the “change from baseline in mean VAS, pelvic pain” value [1, 2] of the same compound?
Its value is −12.552 mm.

And the “subjects without pain in VAS score, pelvic pain” value [1, 2]?
The value was 57%.

And the “week from which median serum estradiol was below LLQ” value (women with endometriosis; Compound 1 40 mg, leuprolide acetate 3.75 mg/4 wk)?
Its value is 4 Week.

And the “mean estradiol serum concentration four weeks after discontinuation” value (women with endometriosis; FIG. 162, relative to control (placebo))?
The value was “only about one-fifth of the control”.
